The values below come from ChEMBL document CHEMBL1151618, “Neoisostegane, a new bisbenzocyclooctadiene lignan lactone from Steganotaenia araliacea” (1984).

The assay relates to KB. Nature of the assay: Cytotoxicity against human KB cells. The conditions noted are these: read-out: ED50 (the source's name). The format is functional.

In brackets after ≈: the same amount, converted by molar mass.

As for `COc1cc2c(cc1OC)-c1cc(OC)c(OC)c(OC)c1C[C@H]1C(=O)OC[C@@H]1C2` [NEOISOSTEGANE], the EC50 amounted to 6.6 µg/mL (≈ 15.9 µM).
